According to US20170008888A1 (KYORIN PHARMACEUTICAL CO., LTD., priority 2014, published 2017):
Like-named read-outs stand apart in the source and are kept apart here.

Legend:
cynomolgus monkey PBMCs = assay: Cytokine response by primary cynomolgus monkey PBMCs stimulated with LPS; assay type: cell-based, cynomolgus monkey (M. fascicularis); settings: Macaca fascicularis, PBMC, 100 ng/ml LPS 20 h
Experimental: Freshly isolated cynomolgus monkey (M. fascicularis) peripheral blood mononuclear cells (PBMCs) were purchased from SNBL (Everett, Wash.). Cells were seeded at 1.8e6 cells/ml in RPMI 1640 (Life Technologies, Grand Island, N.Y.) containing 10% (v/v) charcoal-dextran treated, heat inactivated FBS (Omega Scientific, Tarzana, Calif.), 0.05 mM 2-Mercaptoethanol (Sigma-Aldrich, St. Louis, Mo.), and 1×Pen/Strep Amphotericin B (Lonza, Allendale, N.J.). Cells were pre-treated with 0.1% DMSO or with a test compound for 1 h at 37° C. in a humidified atmosphere at 5% CO2. Compounds were tested at 10 μM down by ⅕ in a 4-point serial dilution series. Cells were then stimulated with 100 ng/ml LPS from E. coli 0111:B4 (EMD Millipore, Billerica, Mass.) for 20 h at 37° C. in a humidified atmosphere at 5% CO2. Supernatant was collected and analyzed using the Milliplex Map Non-human Primate Cytokine Magnetic Bead Panel Kit (EMD Millipore) as per manufacturer's protocols. Magnetic beads were read on the Bio-Plex MAGPIX multiplex reader instrument using the accompanying xPONENT 4.2 acquisition software (Bio-Rad Laboratories, Hercules, Calif.). Data were analyzed via the Bio-Plex Manager software v6.1 (Bio-Rad Laboratories).

human PBMCs = assay: Cytokine response by primary human PBMCs stimulated with PMA/ionomycin or LPS; assay type: cell-based; settings: PBMC
Experimental: Freshly isolated human PBMCs were purchased from Astarte Biologics (Redmond, Wash.). Cells were seeded at 2e6 cells/ml in RPMI 1640 (Life Technologies, Grand Island, N.Y.) containing 10% (v/v) charcoal-dextran treated, heat inactivated FBS (Omega Scientific, Tarzana, Calif.), 0.05 mM 2-Mercaptoethanol (Sigma-Aldrich, St. Louis, Mo.), and 1×Pen/Strep Amphotericin B (Lonza, Allendale, N.J.). Cells were pre-treated with 0.1% DMSO or with test compounds for 1 h at 37° C. in a humidified atmosphere at 5% CO2. Compounds were tested at 10 μM down by ⅕ in a 4-point serial dilution series. Cells were then stimulated with either 50 ng/ml phorbol 12-myristate 13-acetate (PMA)(Sigma-Aldrich)+1 μg/ml ionomycin (Life Technologies) or with 100 ng/ml LPS from E. coli 0111:B4 (EMD Millipore, Billerica, Mass.) for 20 h at 37° C. in a humidified atmosphere at 5% CO2. Supernatant was collected and analyzed using the Bio-Plex Pro Human Cytokine 17-Plex Panel (Bio-Rad Laboratories, Hercules, Calif.) as per manufacturer's protocols. Magnetic beads were read on the Bio-Plex MAGPIX multiplex reader instrument using the accompanying xPONENT 4.2 acquisition software (Bio-Rad Laboratories). Data were analyzed via the Bio-Plex Manager software v6.1 (Bio-Rad Laboratories).

CCOc1cc(C(=O)N2CCCN(C)CC2)ccc1Nc1cc2c(cn1)N(C)C(=O)c1ccccc1N2C [Compound 8]
EC50 (cynomolgus monkey PBMCs; read-out: EC50 (μM) under LPS stimulation, G-CSF): 0.58 µM | EC50 (cynomolgus monkey PBMCs; read-out: EC50 (μM) under LPS stimulation, GM-CSF): 0.5 µM | EC50 (cynomolgus monkey PBMCs; read-out: EC50 (μM) under LPS stimulation, IFN-γ): 0.55 µM | EC50 (cynomolgus monkey PBMCs; read-out: EC50 (μM) under LPS stimulation, IL-1ra): 0.71 µM | EC50 (cynomolgus monkey PBMCs; read-out: EC50 (μM) under LPS stimulation, IL-1β): 0.47 µM | EC50 (cynomolgus monkey PBMCs; read-out: EC50 (μM) under LPS stimulation, IL-4): 1.29 µM | EC50 (cynomolgus monkey PBMCs; read-out: EC50 (μM) under LPS stimulation, IL-6): 1.42 µM | EC50 (cynomolgus monkey PBMCs; read-out: EC50 (μM) under LPS stimulation, IL-8): 0.98 µM | EC50 (cynomolgus monkey PBMCs; read-out: EC50 (μM) under LPS stimulation, IL-10): 0.52 µM | EC50 (cynomolgus monkey PBMCs; read-out: EC50 (μM) under LPS stimulation, IL-12/IL-23 (p40)): 0.75 µM | EC50 (cynomolgus monkey PBMCs; read-out: EC50 (μM) under LPS stimulation, MCP-1): 0.32 µM | EC50 (cynomolgus monkey PBMCs; read-out: EC50 (μM) under LPS stimulation, MIP-1α): 1.63 µM | EC50 (cynomolgus monkey PBMCs; read-out: EC50 (μM) under LPS stimulation, MIP-1β): 4.45 µM | EC50 (cynomolgus monkey PBMCs; read-out: EC50 (μM) under LPS stimulation, TNF-α): 0.63 µM | EC50 (cynomolgus monkey PBMCs; read-out: EC50 (μM) under LPS stimulation, VEGF): 0.9 µM | EC50 (cynomolgus monkey PBMCs; read-out: EC50 (μM) under LPS stimulation, sCD40L): 1.14 µM | EC50 (human PBMCs; 100 ng/ml LPS 20 h, read-out: EC50 (μM) under LPS stimulation, G-CSF): 4.95 µM | EC50 (human PBMCs; 100 ng/ml LPS 20 h, read-out: EC50 (μM) under LPS stimulation, GM-CSF): 4.04 µM | EC50 (human PBMCs; 100 ng/ml LPS 20 h, read-out: EC50 (μM) under LPS stimulation, IFNγ): 1.67 µM | EC50 (human PBMCs; 100 ng/ml LPS 20 h, read-out: EC50 (μM) under LPS stimulation, IL-1β): 3.92 µM | EC50 (human PBMCs; 100 ng/ml LPS 20 h, read-out: EC50 (μM) under LPS stimulation, IL-2): 7.93 µM | EC50 (human PBMCs; 100 ng/ml LPS 20 h, read-out: EC50 (μM) under LPS stimulation, IL-4): 10.9 µM | EC50 (human PBMCs; 100 ng/ml LPS 20 h, read-out: EC50 (μM) under LPS stimulation, IL-6): 4.49 µM | EC50 (human PBMCs; 100 ng/ml LPS 20 h, read-out: EC50 (μM) under LPS stimulation, IL-7): 9.89 µM | EC50 (human PBMCs; 100 ng/ml LPS 20 h, read-out: EC50 (μM) under LPS stimulation, IL-10): 1.09 µM | EC50 (human PBMCs; 100 ng/ml LPS 20 h, read-out: EC50 (μM) under LPS stimulation, IL-12): 1.95 µM | EC50 (human PBMCs; 100 ng/ml LPS 20 h, read-out: EC50 (μM) under LPS stimulation, IL-13): 6.9 µM | EC50 (human PBMCs; 100 ng/ml LPS 20 h, read-out: EC50 (μM) under LPS stimulation, IL-17A): > 10 µM | EC50 (human PBMCs; 100 ng/ml LPS 20 h, read-out: EC50 (μM) under LPS stimulation, MCP-1): 0.237 µM | EC50 (human PBMCs; 100 ng/ml LPS 20 h, read-out: EC50 (μM) under LPS stimulation, TNFα): 0.304 µM | EC50 (human PBMCs; PMA/ionomycin 20 h, read-out: EC50 (μM) under PMA/ionomycin stimulation, GM-CSF): 4.67 µM | EC50 (human PBMCs; PMA/ionomycin 20 h, read-out: EC50 (μM) under PMA/ionomycin stimulation, IL-4): > 10 µM | EC50 (human PBMCs; PMA/ionomycin 20 h, read-out: EC50 (μM) under PMA/ionomycin stimulation, IL-5): 3.88 µM | EC50 (human PBMCs; PMA/ionomycin 20 h, read-out: EC50 (μM) under PMA/ionomycin stimulation, IL-6): 2.35 µM | EC50 (human PBMCs; PMA/ionomycin 20 h, read-out: EC50 (μM) under PMA/ionomycin stimulation, IL-7): > 10 µM | EC50 (human PBMCs; PMA/ionomycin 20 h, read-out: EC50 (μM) under PMA/ionomycin stimulation, IL-10): 0.627 µM | EC50 (human PBMCs; PMA/ionomycin 20 h, read-out: EC50 (μM) under PMA/ionomycin stimulation, IL-12): > 10 µM | EC50 (human PBMCs; PMA/ionomycin 20 h, read-out: EC50 (μM) under PMA/ionomycin stimulation, IL-13): 4.22 µM | EC50 (human PBMCs; PMA/ionomycin 20 h, read-out: EC50 (μM) under PMA/ionomycin stimulation, IL-17A): > 10 µM | EC50 (human PBMCs; PMA/ionomycin 20 h, read-out: EC50 (μM) under PMA/ionomycin stimulation, MCP-1): 0.401 µM | EC50 (human PBMCs; PMA/ionomycin 20 h, read-out: EC50 (μM) under PMA/ionomycin stimulation, MIP-1β): 4.28 µM | EC50 (human PBMCs; PMA/ionomycin 20 h, read-out: EC50 (μM) under PMA/ionomycin stimulation, TNFα): 8.17 µM
